According to ChEMBL document CHEMBL4007501, “Synthesis and antitumor evaluation of 2,3-diarylbenzofuran derivatives on HeLa cells” (Bioorg Med Chem Lett, 2017):
The source made the active and inactive calls. No cut-off for these calls is given here.

Assays:
P388 = assay: Cytotoxicity against mouse P388 cells assessed as growth inhibition; assay type: functional, cell-based
HeLa [1] = assay: Cytotoxicity against human HeLa cells assessed as decrease in cell viability after 48 hrs by MTT assay; assay type: functional, cell-based
HeLa [2] = assay: Cytotoxicity against human HeLa cells assessed as decrease in cell viability at 10 uM after 48 hrs by MTT assay relative to control; assay type: functional
HeLa [3] = assay: Cell cycle arrest in human HeLa cells assessed as accumulation at S phase at 10 uM after 48 hrs by propidium iodide staining-based flow cytometric analysis (reference value: 29.20%); assay type: functional
HeLa [4] = assay: Induction of apoptosis in human HeLa cells assessed as late apoptotic cells at 20 uM after 24 hrs by annexin V/FITC-propidium iodide staining-based flow cytometric method (reference value: 0.987%); assay type: functional
HeLa [5] = assay: Cell cycle arrest in human HeLa cells assessed as accumulation at G2 phase at 20 uM after 48 hrs by propidium iodide staining-based flow cytometric analysis (reference value: 4.45%); assay type: functional
HeLa [6] = assay: Induction of apoptosis in human HeLa cells assessed as early apoptotic cells at 30 uM after 24 hrs by annexin V/FITC-propidium iodide staining-based flow cytometric method (reference value: 1.76%); assay type: functional
HeLa [7] = assay: Induction of apoptosis in human HeLa cells assessed as viable cells at 10 uM after 24 hrs by annexin V/FITC-propidium iodide staining-based flow cytometric method (reference value: 95.4%); assay type: functional; conditions: read-out: Activity
HeLa [8] = assay: Induction of apoptosis in human HeLa cells assessed as necrotic cells at 30 uM after 24 hrs by annexin V/FITC-propidium iodide staining-based flow cytometric method (reference value: 1.81%); assay type: functional
HeLa [9] = assay: Induction of apoptosis in human HeLa cells assessed as viable cells at 20 uM after 24 hrs by annexin V/FITC-propidium iodide staining-based flow cytometric method (reference value: 95.4%); assay type: functional; conditions: read-out: Activity
HeLa [10] = assay: Cell cycle arrest in human HeLa cells assessed as accumulation at G1 phase at 30 uM after 48 hrs by propidium iodide staining-based flow cytometric analysis (reference value: 66.35%); assay type: functional
HeLa [11] = assay: Induction of apoptosis in human HeLa cells assessed as necrotic cells at 10 uM after 24 hrs by annexin V/FITC-propidium iodide staining-based flow cytometric method (reference value: 1.81%); assay type: functional
HeLa [12] = assay: Upregulation of Bak expression in human HeLa cells at 10 to 30 uM after 24 hrs by Western blot method; assay type: functional, cell-based
HeLa [13] = assay: Induction of apoptosis in human HeLa cells assessed as early apoptotic cells at 20 uM after 24 hrs by annexin V/FITC-propidium iodide staining-based flow cytometric method (reference value: 1.76%); assay type: functional
HeLa [14] = assay: Upregulation of Bim expression in human HeLa cells at 10 to 30 uM after 24 hrs by Western blot method; assay type: functional, cell-based
HeLa [15] = assay: Cell cycle arrest in human HeLa cells assessed as accumulation at G2 phase at 10 uM after 48 hrs by propidium iodide staining-based flow cytometric analysis (reference value: 4.45%); assay type: functional
HeLa [16] = assay: Cell cycle arrest in human HeLa cells assessed as accumulation at S phase at 20 uM after 48 hrs by propidium iodide staining-based flow cytometric analysis (reference value: 29.20%); assay type: functional
HeLa [17] = assay: Cell cycle arrest in human HeLa cells assessed as accumulation at G1 phase at 10 uM after 48 hrs by propidium iodide staining-based flow cytometric analysis (reference value: 66.35%); assay type: functional
HeLa [18] = assay: Induction of apoptosis in human HeLa cells assessed as early apoptotic cells at 10 uM after 24 hrs by annexin V/FITC-propidium iodide staining-based flow cytometric method (reference value: 1.76%); assay type: functional
HeLa [19] = assay: Cytotoxicity against human HeLa cells assessed as decrease in cell viability at 20 uM after 48 hrs by MTT assay relative to control; assay type: functional
HeLa [20] = assay: Induction of apoptosis in human HeLa cells assessed as late apoptotic cells at 30 uM after 24 hrs by annexin V/FITC-propidium iodide staining-based flow cytometric method (reference value: 0.987%); assay type: functional
HeLa [21] = assay: Downregulation of Bcl-2 expression in human HeLa cells at 10 to 30 uM after 24 hrs by Western blot method; assay type: functional, cell-based
HeLa [22] = assay: Downregulation of Bcl-xL expression in human HeLa cells at 10 to 30 uM after 24 hrs by Western blot method; assay type: functional, cell-based
HeLa [23] = assay: Cell cycle arrest in human HeLa cells assessed as accumulation at G1 phase at 20 uM after 48 hrs by propidium iodide staining-based flow cytometric analysis (reference value: 66.35%); assay type: functional
HeLa [24] = assay: Induction of apoptosis in human HeLa cells assessed as late apoptotic cells at 10 uM after 24 hrs by annexin V/FITC-propidium iodide staining-based flow cytometric method (reference value: 0.987%); assay type: functional
HeLa [25] = assay: Cell cycle arrest in human HeLa cells assessed as accumulation at G2 phase at 30 uM after 48 hrs by propidium iodide staining-based flow cytometric analysis (reference value: 4.45%); assay type: functional
HeLa [26] = assay: Cell cycle arrest in human HeLa cells assessed as accumulation at S phase at 30 uM after 48 hrs by propidium iodide staining-based flow cytometric analysis (reference value: 29.20%); assay type: functional
HeLa [27] = assay: Induction of apoptosis in human HeLa cells assessed as viable cells at 30 uM after 24 hrs by annexin V/FITC-propidium iodide staining-based flow cytometric method (reference value: 95.4%); assay type: functional; conditions: read-out: Activity
HeLa [28] = assay: Induction of apoptosis in human HeLa cells assessed as necrotic cells at 20 uM after 24 hrs by annexin V/FITC-propidium iodide staining-based flow cytometric method (reference value: 1.81%); assay type: functional
MCF7 = assay: Cytotoxicity against human MCF7 cells assessed as decrease in cell viability by MTT assay; assay type: functional, cell-based
HepG2 = assay: Cytotoxicity against human HepG2 cells assessed as decrease in cell viability by MTT assay; assay type: functional, cell-based

`O=C1c2c(O)cc(O)cc2-c2c(-c3ccc(O)cc3)oc3cc(O)cc1c23` gave an IC50 (P388) of 13.2 µM.

With `Oc1ccc(-c2c(-c3ccc(Cl)cc3)oc3cc(O)ccc23)c(O)c1` the IC50 (HeLa [1]) was 32.7 µM.

For `Oc1ccc(-c2c(-c3ccccc3Br)oc3cc(O)ccc23)c(O)c1`, the IC50 (HeLa [1]) was > 100 µM.

With `Oc1ccc(-c2c(-c3cccc(Br)c3)oc3cc(O)ccc23)c(O)c1` the IC50 (HeLa [1]) was 26.9 µM.

`Oc1ccc(-c2c(-c3cccnc3)oc3cc(O)ccc23)c(O)c1` showed an IC50 (HeLa [1]) of 19.9 µM.

`Cc1cccc(-c2oc3cc(O)ccc3c2-c2ccc(O)cc2O)c1` was tested, and the Activity (HeLa [2]) was 30%, the Activity (HeLa [3]) was 21.56% and the Activity (HeLa [4]) was 18.9%. It also gave an Activity (HeLa [5]) of 6.31%, an Activity (HeLa [6]) of 10.3% and a viability at 10 µM (HeLa [7]) of 82.7%. It also gave an Activity (HeLa [8]) of 11.5%, a viability at 20 µM (HeLa [9]) of 69.5% and an Activity (HeLa [10]) of 61.08%. The Activity (HeLa [11]) was 1.97%, the Activity (HeLa [12]) was “Active” and the Activity (HeLa [13]) was 8.57%. For the same molecule, the Activity (HeLa [14]) was “Active”, the Activity (HeLa [15]) was 7.56% and the Activity (HeLa [16]) was 30.15%. It also gave an Activity (HeLa [17]) of 70.88%, an Activity (HeLa [18]) of 8.05% and an Activity (HeLa [19]) of 65%. The Activity (HeLa [20]) was 36.2%, the IC50 (HeLa [1]) was 13.4 µM and the Activity (HeLa [21]) was “Active”. For the same molecule, the Activity (HeLa [22]) was “Active”, the Activity (HeLa [23]) was 63.54% and the Activity (HeLa [24]) was 7.26%. It also gave an Activity (HeLa [25]) of 7.1%, an Activity (HeLa [26]) of 31.82% and a viability at 30 µM (HeLa [27]) of 42.1%. The Activity (HeLa [28]) was 3.08%.

For `COc1ccc(-c2oc3cc(O)ccc3c2-c2ccc(O)cc2O)cc1`, the IC50 (HeLa [1]) was 13.7 µM.

In the case of `Cc1ccc(-c2oc3cc(O)ccc3c2-c2ccc(O)cc2O)cc1`, the IC50 (HeLa [1]) is reported as 29.2 µM.

`Oc1ccc(-c2c(-c3ccc4ccccc4c3)oc3cc(O)ccc23)c(O)c1` showed an IC50 (HeLa [1]) of 21.2 µM.

`COc1ccc(-c2c(-c3ccccc3)oc3cc(OC)ccc23)c(O)c1` was tested, and the IC50 (HeLa [1]) was 28.9 µM.

In the case of `CC[C@@]1(O)C(=O)OCc2c1cc1n(c2=O)Cc2cc3cc(O)ccc3nc2-1` [HYDROXYCAMPTOTHECIN], the IC50 (HeLa [1]) is reported as 10 µM.

In the case of `COc1cccc(-c2c(-c3ccccc3)oc3c(OC)cccc23)c1O`, the IC50 (HeLa [1]) is reported as 57.8 µM.

`Oc1ccc(-c2oc3cc(O)ccc3c2-c2ccc(O)cc2O)cc1` showed an IC50 (HeLa [1]) of 32 µM.

`Oc1ccc(-c2c(-c3ccc(F)cc3)oc3cc(O)ccc23)c(O)c1` showed an IC50 (HeLa [1]) of 28.3 µM.

In the case of `COc1ccc(/C=C/c2cc(OC)c3c(-c4cc(OC)cc(OC)c4)c(-c4ccc(OC)cc4)oc3c2)cc1`, the IC50 (MCF7) is reported as 0.85 µM and the IC50 (HepG2) is reported as 0.24 µM.

In the case of `Oc1ccc(-c2c(-c3ccc(Br)cc3)oc3cc(O)ccc23)c(O)c1`, the IC50 (HeLa [1]) is reported as 36.7 µM.

In the case of `COc1cccc(-c2oc3cc(O)ccc3c2-c2ccc(O)cc2O)c1`, the IC50 (HeLa [1]) is reported as 29.9 µM.

Molecule `Oc1ccc(-c2c(-c3ccccc3)oc3cc(O)ccc23)c(O)c1` has an IC50 (HeLa [1]) of 29.7 µM.

With `Cc1ccccc1-c1oc2cc(O)ccc2c1-c1ccc(O)cc1O` the IC50 (HeLa [1]) was 47.5 µM.
